Assay [1] concerns MT4. The experiment in a line: Concentration required to inhibit spread of native HIV-1(V18) protease obtained from PI-resistant clinical isolate in MT-4 human T-lymphoid cells. The assay is classed as functional. To be noted: read-out: CIC95.
For assay [2], the system named is MT4. The experiment in a line: Concentration required to inhibit spread of native HIV-1(4X) protease obtained from PI-resistant clinical isolate in MT-4 human T-lymphoid cells. The assay is classed as functional. To be noted: read-out: CIC95.
Assay [3] deals with MT4. Nature of the assay: Concentration required to inhibit spread of native HIV-1(NL4-3) protease obtained from PI-resistant clinical isolate in MT-4 human T-lymphoid cells. The assay is classed as functional. To be noted: read-out: CIC95.
For assay [4], the target named is T1, Human immunodeficiency virus type 1 protease (Human immunodeficiency virus 1, UniProt Q72874). The experiment in a line: Inhibitory concentration against HIV-1 protease (NL4-3).
The subject of assay [5] is MT4. Nature of the assay: Concentration required to inhibit spread of native HIV-1(Q-60) protease obtained from PI-resistant clinical isolate in MT-4 human T-lymphoid cells. The assay is classed as functional. To be noted: read-out: CIC95.
The target of assay [6] is T1, Human immunodeficiency virus type 1 protease. Nature of the assay: inhibitory concentration against HIV-1 protease from PI-resistant clinical isolate (V18).
The test system of assay [7] is MT4. Nature of the assay: Concentration required to inhibit spread of native HIV-1(K-60) protease obtained from PI-resistant clinical isolate in MT-4 human T-lymphoid cells. The assay is classed as functional. To be noted: read-out: CIC95.

Take `CC(C)(c1ncc(-c2ccc(Cl)cc2)o1)N1CCN(C[C@@H](O)C[C@@H](Cc2nnco2)C(=O)N[C@H]2CCOC[C@H]2O)[C@H](C(=O)NCC(F)(F)F)C1`: the IC95 in assay [1] was 63 nM; in assay [2] it was 31 nM; in assay [3], 125 nM; in assay [5], 31 nM; in assay [7] it was 63 nM. The concentration for half-maximal inhibition (IC50) in assay [4] is < 0.01 nM; in assay [6] it was 0.04 nM.

As for `CCCc1nnc(C[C@H](C[C@H](O)CN2CCN(C(C)(C)c3ncc(-c4ccc(Cl)cc4)o3)C[C@H]2C(=O)NCC(F)(F)F)C(=O)N[C@H]2CCOC[C@H]2O)o1`, the IC95 in assay [1] is 63 nM; in assay [2] it was ≤ 8 nM; in assay [3] it was ≤ 8 nM; in assay [5], ≤ 8 nM; in assay [7], 16 nM. Also, the IC50 in assay [4] was < 0.01 nM; in assay [6], 0.18 nM.

Regarding `O=C(N[C@H]1CCOC[C@H]1O)[C@H](Cc1nnco1)C[C@H](O)CN1CCN(Cc2ccc(-c3ccc(Cl)cc3)o2)C[C@H]1C(=O)NCC(F)(F)F`, the IC95 in assay [1] was determined as 125 nM; in assay [2] it was 31 nM; in assay [3] it was 63 nM; in assay [5], 31 nM; in assay [7] it was 63 nM. Moreover, the IC50 in assay [4] amounted to 0.01 nM; in assay [6] it was 0.09 nM.

For `COc1cncc(-c2cnc(C(C)(C)N3CCN(C[C@@H](O)C[C@@H](Cc4nnc(-c5ccccc5)o4)C(=O)N[C@H]4CCOC[C@H]4O)[C@H](C(=O)NCC(F)(F)F)C3)o2)c1`, the IC95 was < 1000 nM in assay [1]; 250 nM in assay [2]; 125 nM in assay [3]; 500 nM in assay [5]; 250 nM in assay [7]. In assay [4], this compound displayed an IC50 of 0.48 nM.

For `Cc1nnc(C[C@H](C[C@H](O)CN2CCN(Cc3ccc(-c4ccc(Cl)cc4)o3)C[C@H]2C(=O)NCC(F)(F)F)C(=O)N[C@H]2CCOC[C@H]2O)o1`, the IC95 in assay [1] is 63 nM; in assay [2] it was 31 nM; in assay [3], ≤ 63 nM; in assay [5] it was 31 nM; in assay [7], 31 nM. In assay [4], the IC50 is < 0.01 nM.

With `Cc1nnc(C[C@H](C[C@H](O)CN2CCN(C(C)(C)c3ncc(-c4ccc(Cl)cc4)o3)C[C@H]2C(=O)NCC(F)(F)F)C(=O)N[C@H]2CCOC[C@H]2O)o1`, the IC95 in assay [1] was 63 nM; in assay [2], 16 nM; in assay [3], 250 nM; in assay [5], ≤ 8 nM; in assay [7] it was 31 nM. Moreover, the concentration for half-maximal inhibition (IC50) in assay [4] stood at 0.01 nM; in assay [6], 0.06 nM.

Take `O=C(N[C@H]1CCOC[C@H]1O)[C@H](Cc1nnc(-c2ccccc2)o1)C[C@H](O)CN1CCN(Cc2ccc(-c3ccc(Cl)cc3)o2)C[C@H]1C(=O)NCC(F)(F)F`: the IC95 in assay [1] is 250 nM; in assay [2], 125 nM; in assay [3] it was 15.6 nM; in assay [5] it was 63 nM; in assay [7], ≤ 8 nM. The compound also registered an IC50 in assay [4] of 0.01 nM.

As for `Cc1nnc(C[C@H](C[C@H](O)CN2CCN(C(C)(C)c3ncc(-c4ccc(F)cc4)o3)C[C@H]2C(=O)NCC(F)(F)F)C(=O)N[C@H]2CCOC[C@H]2O)o1`, the IC95 came to 63 nM in assay [1]; 31 nM in assay [2]; 125 nM in assay [3]; 31 nM in assay [5]; 125 nM in assay [7]. Further, the IC50 in assay [4] stood at 0.02 nM; in assay [6], 0.19 nM.

Regarding `CC(C)(c1ncc(-c2ccc(F)cc2)o1)N1CCN(C[C@@H](O)C[C@@H](Cc2nnco2)C(=O)N[C@H]2CCOC[C@H]2O)[C@H](C(=O)NCC(F)(F)F)C1`, the IC95 in assay [1] was determined as 125 nM; in assay [2] it was 31 nM; in assay [3] it was 125 nM; in assay [5], 31 nM; in assay [7], 125 nM. Moreover, the half-maximal inhibitory concentration (IC50) in assay [4] was 0.02 nM; in assay [6] it was 0.06 nM.

Consider `CCCc1nnc(C[C@H](C[C@H](O)CN2CCN(C(C)(C)c3ncc(-c4ccc(F)cc4)o3)C[C@H]2C(=O)NCC(F)(F)F)C(=O)N[C@H]2CCOC[C@H]2O)o1`, for which the IC95 is 63 nM in assay [1]; 16 nM in assay [2]; 16 nM in assay [3]; ≤ 8 nM in assay [5]; 16 nM in assay [7]. In addition, the results for the IC50 in assay [4] and in assay [6] were 0.01 nM and 0.19 nM, respectively.

On to `COc1cncc(-c2cnc(C(C)(C)N3CCN(C[C@@H](O)C[C@@H](Cc4nnc(C)o4)C(=O)N[C@H]4CCOC[C@H]4O)[C@H](C(=O)NCC(F)(F)F)C3)o2)c1`, for which the IC95 in assay [1], in assay [2], in assay [3], in assay [5] and in assay [7] was > 1000 nM throughout. Further, the IC50 is 0.4 nM in assay [4] and 15 nM in assay [6].

Take `CC(C)(c1ncc(-c2ccc(Cl)cc2)o1)N1CCN(C[C@@H](O)C[C@@H](Cc2nnc(-c3ccccc3)o2)C(=O)N[C@H]2CCOC[C@H]2O)[C@H](C(=O)NCC(F)(F)F)C1`: the IC95 is 125 nM in assay [1]; 16 nM in assay [2]; ≤ 8 nM in assay [3]; 16 nM in assay [5]; ≤ 8 nM in assay [7]. Also, the 50% inhibitory concentration (IC50) is < 0.01 nM in assay [4] and 0.18 nM in assay [6].

For `CCCc1nnc(C[C@H](C[C@H](O)CN2CCN(C(C)(C)c3ncc(-c4cncc(OC)c4)o3)C[C@H]2C(=O)NCC(F)(F)F)C(=O)N[C@H]2CCOC[C@H]2O)o1`, the IC95 in assay [1] was < 1000 nM; in assay [2], 500 nM; in assay [3] it was 500 nM; in assay [5] it was 500 nM; in assay [7] it was 500 nM. The compound also came in with a 50% inhibitory concentration (IC50) in assay [4] of 0.32 nM.

On to `CCCc1nnc(C[C@H](C[C@H](O)CN2CCN(Cc3ccc(-c4ccc(Cl)cc4)o3)C[C@H]2C(=O)NCC(F)(F)F)C(=O)N[C@H]2CCOC[C@H]2O)o1`, for which the IC95 in assay [1] was 125 nM; in assay [2], 31 nM; in assay [3], ≤ 8 nM; in assay [5], 16 nM; in assay [7] it was ≤ 8 nM. The IC50 in assay [4] is < 0.01 nM.

In the case of `COc1cncc(-c2cnc(C(C)(C)N3CCN(C[C@@H](O)C[C@@H](Cc4nnco4)C(=O)N[C@H]4CCOC[C@H]4O)[C@H](C(=O)NCC(F)(F)F)C3)o2)c1`, the half-maximal inhibitory concentration (IC50) in assay [4] amounted to 0.24 nM; in assay [6], 7.4 nM.

On to `CC(C)(c1ncc(-c2ccc(F)cc2)o1)N1CCN(C[C@@H](O)C[C@@H](Cc2nnc(-c3ccccc3)o2)C(=O)N[C@H]2CCOC[C@H]2O)[C@H](C(=O)NCC(F)(F)F)C1`, for which the IC95 was 63 nM in assay [1]; 16 nM in assay [2]; ≤ 8 nM in assay [3]; 16 nM in assay [5]; ≤ 8 nM in assay [7]. In assay [4], this compound registered an IC50 of 0.02 nM.

For the compound `CC(C)(C)NC(=O)[C@@H]1CN(Cc2cccnc2)CCN1C[C@@H](O)C[C@@H](Cc1ccccc1)C(=O)N[C@H]1c2ccccc2C[C@H]1O`, the IC95 in assay [1] was > 1000 nM; in assay [2], 400 nM; in assay [3], 50 nM; in assay [5], > 1000 nM; in assay [7], > 1000 nM.

These data come from ChEMBL document CHEMBL1137832, “P1' oxadiazole protease inhibitors with excellent activity against native and protease inhibitor-resistant HIV-1” (Bioorg Med Chem Lett, 2004).
